Assay results: US8962621B2 (Shanghai Institute of Pharmaceutical Industry, priority 2010, dated 2015)
Where two headings read alike, the source gives them in different places.

Assays:
[1] = test system: male ICR mice; assay: Mice tail suspension test; type: in vivo; conditions: for IT (sec), immobility time: 20.0 mg/kg single intragastric administration, 1 h before test, 4 min observation, n=12; for Improvement (%): 20.0 mg/kg single oral administration, versus blank control IT; for effect on immobility time in the tail suspension test (in words): efficacy similar to Venlafaxine
Description: Through intragastric administration, 10 mL·kg^−1 of each sample (physiological saline for the blank control group) is administrated. After 1 h of the treatment, the mouse is held with a medical tape at a position around 2 cm from the tip of its tail and hung upside-down in the suspension cage with its head 5 cm away from the bottom of the cage. The observation starts right after the mouse is suspended for 2 min and continues for 4 min. The time during which the mouse is immobile (no struggling or only tiny movements of its body/limbs) in this 4 min is accumulated (IT, immobility time). The percentage of the improvement is calculated according to the equation: Improvement %=[IT (blank control group)−IT (compound treatment group)]/IT (blank control group)×100%

[2] = test system: male Kunming mice; assay: Mice forced swimming test; type: in vivo; conditions: for effect in the forced swimming test (in words): 20 mg/kg; for IT (sec), immobility time: 20.0 mg/kg single intragastric administration, 1 h before test, last 4 min of 6 min, n=12
Description: Through intragastric administration, 10 mL·kg^−1 of each sample (physiological saline for the blank control group) is administrated. The mice are pre-screened for swimming one day before the actual test. The mouse is placed into water (25° C., 10 cm deep) in a glass tank (height 20 cm, diameter 14 cm) and forced to swim for 6 min. Those who stop swimming at around 70-160 s are chosen for the actual test which starts 24 h later. After 1 h of the administration, the forced swimming test is performed by placing the animal into the above-mentioned environment to swim for 6 min. The accumulative immobility time for the last 4 min is recorded. Data is statistically analyzed with t-test.

[3] = Acute toxicity experiment (single oral gavage); conditions: mouse, in vivo
[4] = test system: Histidine auxotroph mutant of mouse salmonella TA97, TA98, TA100 and TA102; type: cell-based; conditions: for bacteriostatic action: 5000 μg per dish, TA98 without S9 and TA97 with S9, none at other dosages; for Ames test result: TA97, TA98, TA100, TA102, with or without S9, all test dosages
Source text: 5. […] 6. Bacterial Reverse Mutation Test of Compounds VI-1 VI-2 and VI16 • Strains: Histidine auxotroph mutant of mouse salmonella TA97, TA98, TA100 and TA102. • Test method: The one reported in Maron DM et al: (1983) Mutay Res. 113, 173-216 is used. • Results: The test consists of two parts, i.e., −S9 and +S9. […] No bacteriostatic actions to all the strains are observed at all the other dosages, and the growth background is good.

[5] = biological target: NA Transporter (hNAT) (Homo sapiens, UniProt P23975); assay: Inhibition of [3H]-NA reuptake in HEK 293 cells stably expressing hNAT; conditions: for inhibition at 10 µM: HEK293, read-out: NA Reuptake Inhibition; for NA Reuptake Inhibition: 10 μmol/L final concentration (b487 prints 0.1 mmol/L), HEK 293 hNAT cells, [3H]-NA
NA Transporter (hNAT), sequence (P23975 whole entry): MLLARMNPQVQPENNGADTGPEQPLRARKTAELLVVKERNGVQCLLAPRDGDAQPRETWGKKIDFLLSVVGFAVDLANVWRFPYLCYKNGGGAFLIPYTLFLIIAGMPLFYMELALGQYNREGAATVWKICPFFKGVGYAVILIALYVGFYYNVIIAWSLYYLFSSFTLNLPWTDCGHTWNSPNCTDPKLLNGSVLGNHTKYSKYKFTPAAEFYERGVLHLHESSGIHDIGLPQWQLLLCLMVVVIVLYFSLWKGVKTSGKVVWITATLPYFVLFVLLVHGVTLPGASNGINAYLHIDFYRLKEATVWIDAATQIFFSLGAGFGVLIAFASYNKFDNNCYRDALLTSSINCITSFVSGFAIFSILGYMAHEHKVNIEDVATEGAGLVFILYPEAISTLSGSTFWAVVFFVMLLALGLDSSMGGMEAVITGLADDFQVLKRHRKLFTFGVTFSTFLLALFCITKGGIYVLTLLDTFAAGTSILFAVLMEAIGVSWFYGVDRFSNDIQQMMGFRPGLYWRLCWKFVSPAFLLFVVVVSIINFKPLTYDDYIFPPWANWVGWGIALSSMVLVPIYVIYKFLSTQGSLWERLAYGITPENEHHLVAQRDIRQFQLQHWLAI

[6] = biological target: DA Transporter (hDAT) (Homo sapiens, UniProt Q01959); assay: Inhibition of [3H]-DA reuptake in HEK 293 cells stably expressing hDAT; conditions: for inhibition at 10 µM: HEK293, read-out: DA Reuptake Inhibition; for DA Reuptake Inhibition: 10 μmol/L final concentration (b487 prints 0.1 mmol/L), HEK 293 hDAT cells, [3H]-DA
DA Transporter (hDAT), sequence (Q01959 whole entry): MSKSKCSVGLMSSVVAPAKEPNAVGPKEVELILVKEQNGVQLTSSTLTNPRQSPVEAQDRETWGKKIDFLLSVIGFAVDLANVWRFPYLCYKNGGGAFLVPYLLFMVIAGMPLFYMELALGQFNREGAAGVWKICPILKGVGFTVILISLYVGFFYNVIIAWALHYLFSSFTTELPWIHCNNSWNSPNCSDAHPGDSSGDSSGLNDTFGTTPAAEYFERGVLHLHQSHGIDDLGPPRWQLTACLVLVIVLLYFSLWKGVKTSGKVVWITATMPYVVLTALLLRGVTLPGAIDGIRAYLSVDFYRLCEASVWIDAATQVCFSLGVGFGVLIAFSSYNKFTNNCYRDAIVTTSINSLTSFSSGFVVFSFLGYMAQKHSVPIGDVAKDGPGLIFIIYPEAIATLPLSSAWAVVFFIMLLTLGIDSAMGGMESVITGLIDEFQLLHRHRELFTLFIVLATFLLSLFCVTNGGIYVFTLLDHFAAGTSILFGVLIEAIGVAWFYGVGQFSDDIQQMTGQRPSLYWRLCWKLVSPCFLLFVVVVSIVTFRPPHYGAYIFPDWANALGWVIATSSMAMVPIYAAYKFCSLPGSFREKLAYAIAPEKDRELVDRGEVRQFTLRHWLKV

[7] = biological target: 5-HT Transporter (hSERT) (Homo sapiens, UniProt P31645); assay: Inhibition of [3H]-5-HT reuptake in HEK 293 cells stably expressing hSERT; conditions: for inhibition at 10 µM: HEK293, read-out: 5-HT Reuptake Inhibition; for 5-HT Reuptake Inhibition: 10 μmol/L final concentration (b487 prints 0.1 mmol/L), HEK 293 hSERT cells, [3H]-5-HT;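 on all read-outs here: compound preincubated 10 min at 30 °C, then 10 min uptake, filter-bound radioactivity counted by scintillation, inhibition relative to total (blank) minus non-specific (positive control) uptake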
5-HT Transporter (hSERT), sequence (P31645 whole entry): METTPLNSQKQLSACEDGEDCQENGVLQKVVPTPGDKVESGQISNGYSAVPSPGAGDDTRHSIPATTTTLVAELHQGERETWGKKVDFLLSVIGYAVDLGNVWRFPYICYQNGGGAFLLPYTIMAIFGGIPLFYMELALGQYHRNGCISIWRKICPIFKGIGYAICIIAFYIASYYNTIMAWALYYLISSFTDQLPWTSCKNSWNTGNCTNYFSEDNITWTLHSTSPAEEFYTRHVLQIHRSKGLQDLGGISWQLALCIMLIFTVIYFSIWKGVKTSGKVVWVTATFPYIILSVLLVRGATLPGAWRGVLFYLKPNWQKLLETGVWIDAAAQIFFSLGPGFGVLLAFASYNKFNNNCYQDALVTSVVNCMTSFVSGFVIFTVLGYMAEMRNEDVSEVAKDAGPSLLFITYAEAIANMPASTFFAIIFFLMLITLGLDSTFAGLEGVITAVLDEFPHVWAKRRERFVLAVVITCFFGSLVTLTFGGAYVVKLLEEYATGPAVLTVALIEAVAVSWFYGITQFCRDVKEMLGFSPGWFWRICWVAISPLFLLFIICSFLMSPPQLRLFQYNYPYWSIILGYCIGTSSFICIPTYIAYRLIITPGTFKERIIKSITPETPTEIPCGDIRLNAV

[8] = test system: rats; assay: Learned helplessness experiment (conditioned avoidance test); type: in vivo
Source text: (1) Principles • This is an animal model of depression. In this experiment, an animal is placed under conditions with aversive stimulus which it can't escape. […] This is a well recognized depression state, in which the level of catecholamine in the animal's brain is reduced. An antidepressant can act against this state. The learned helplessness model is sensitive to a variety of antidepressants used in a sub-long period (3-7 d), including tricyclic antidepressants, monoamine oxidase inhibitors, monoamine reuptake inhibitors and atypical antidepressants.
(2) Test Method • The animals are grouped. The pre-shock animals are generated the first day by performing inescapable electric shock. The pre-shock animals are given foot electric shock (0.8 mA, 15 s) for 60 times (1 min interval). Rats in the control group are only put into the cage for a same period of time but without any electric shock. • The administration of drugs starts the next day and lasts for one week. […] The conditioned avoidance test is conducted 24 h after the last administration to determine the number of times of successful avoidance and the incubation period of escape.

[9] = 30 mg/kg, one week, test 24 h after last administration, n = 10
[10] = Venlafaxine 30 mg/kg, VI-2 at 3 doses (20, 10, 5 mg/kg)

CCN(CC)CCC(c1ccc(Cl)c(Cl)c1)N1CCCC1 (centres unmarked) [VI-1, N,N-diethyl-3-(3,4-dichlorophenyl)-3-(pyrrolidin-1-yl)-propylamine]
IT (sec), immobility time [1]: 48.17 ± 38.29 s
Improvement (%) [1]: 51.44%
effect on immobility time in the tail suspension test (in words) ([1]; 20 mg/kg): significant reduction in the immobility time
effect in the forced swimming test (in words) [2]: significant reduction in the immobility time
IT (sec), immobility time [2]: 57.1 ± 37.8 s
LD50 ([3]; po): 1050 mg/kg
bacteriostatic action [4]: bacteriostatic action is showed
Ames test result [4]: negative
inhibition at 10 µM [5]: 101%
inhibition at 10 µM [6]: 101%
inhibition effect towards the reuptake of 5-HT (in words) [7]: relatively strong inhibition effect
inhibition at 10 µM [7]: 98.2%

COc1ccc(C(CN(C)C)C2(O)CCCCC2)cc1 (centres unmarked) [Venlafaxine, reference compound]
immobility time ([1]; 20 mg/kg): 36.97 ± 21.10 s
IT (sec), immobility time [1]: 36.97 ± 21.10 s
Improvement (%) [1]: 62.73%
IT (sec), immobility time [2]: 77.4 ± 47.2 s
Incubation period of escape [8, 9]: 72.8 ± 77.26 s
Number of times of successful avoidance [8, 9]: 19.4 ± 6.88
incubation period of escape (in words) [8, 10]: significantly shortened incubation period of escape
times of successful avoidance (in words) [8, 10]: relatively more times of successful avoidance
inhibition at 10 µM [5]: 96.4%
inhibition at 10 µM [6]: 52.4%

COc1ccc2cc(C(CCN(C)C)N3CCCC3)ccc2c1Cl (centres unmarked) [VI-36, N,N-dimethyl-3-(5-chloro-6-methoxynaphthalen-2-yl)-3-(pyrrolidin-1-yl)-propylamine]
IT (sec), immobility time [1]: 39.91 ± 18.35 s
Improvement (%) [1]: 59.29%
effect on immobility time in the tail suspension test (in words) ([1]; 20 mg/kg): significant reduction in the immobility time
effect in the forced swimming test (in words) [2]: significant difference from that of the blank control
IT (sec), immobility time [2]: 90.6 ± 48.0 s
inhibition at 10 µM [5]: 97.8%
inhibition at 10 µM [6]: 87.2%
inhibition at 10 µM [7]: 98.3%

CN(C)CCC(c1cc2ccccc2s1)N1CCCCC1 (centres unmarked) [VI-22, N,N-dimethyl-3-(benzothiophen-2-yl)-3-piperidinyl-propylamine]
IT (sec), immobility time [1]: 65.25 ± 28.39 s
Improvement (%) [1]: 34.22%
effect in the forced swimming test (in words) [2]: significant reduction in the immobility time
IT (sec), immobility time [2]: 75.4 ± 40.3 s
NA Reuptake Inhibition [5]: 99.8%
DA Reuptake Inhibition [6]: 96.5%
inhibition effect towards the reuptake of 5-HT (in words) [7]: relatively strong inhibition effect
5-HT Reuptake Inhibition [7]: 96.3%

CN(C)CCCC(c1csc2ccccc12)N1CCOCC1 (centres unmarked) [VI-46, N,N-dimethyl-4-(benzothiophen-3-yl)-4-morpholinyl-butylamine]
IT (sec), immobility time [1]: 86.19 ± 35.87 s
Improvement (%) [1]: 13.01%
effect in the forced swimming test (in words) [2]: significant difference from that of the blank control
IT (sec), immobility time [2]: 97 ± 48.5 s
NA Reuptake Inhibition [5]: 89.5%
DA Reuptake Inhibition [6]: 78.0%
inhibition effect towards the reuptake of 5-HT (in words) [7]: relatively strong inhibition effect
5-HT Reuptake Inhibition [7]: 92.3%

CN(C)CCC(c1csc2ccccc12)N1CCCC1 (centres unmarked) [VI-13, N,N-dimethyl-3-(benzothiophen-3-yl)-3-(pyrrolidin-1-yl)-propylamine]
IT (sec), immobility time [1]: 38.29 ± 23.76 s
Improvement (%) [1]: 61.40%
effect on immobility time in the tail suspension test (in words) ([1]; 20 mg/kg): significant reduction in the immobility time
effect in the forced swimming test (in words) [2]: significant reduction in the immobility time
IT (sec), immobility time [2]: 44.9 ± 53.7 s
inhibition at 10 µM [5]: 98.8%
inhibition at 10 µM [6]: 96.9%
inhibition at 10 µM [7]: 96.6%

CN(C)CCC(c1csc2ccccc12)N1CCCCC1 (centres unmarked)
IT (sec), immobility time [1]: 45.21 ± 28.19 s
Improvement (%) [1]: 54.42%
effect on immobility time in the tail suspension test (in words) ([1]; 20 mg/kg): significant reduction in the immobility time
effect in the forced swimming test (in words) [2]: significant reduction in the immobility time
IT (sec), immobility time [2]: 62.1 ± 42.9 s
LD50 ([3]; mice, single oral gavage, Bliss method, read-out: LD50): 870 mg/kg
bacteriostatic action [4]: bacteriostatic action is showed
Ames test result [4]: negative
inhibition at 10 µM [5]: 92.1%
inhibition at 10 µM [6]: 80.2%
inhibition effect towards the reuptake of 5-HT (in words) [7]: relatively strong inhibition effect
inhibition at 10 µM [7]: 90.5%

CN(C)CCC(c1cc2ccccc2s1)N1CCCC1 (centres unmarked) [VI-19, N,N-dimethyl-3-(benzothiophen-2-yl)-3-(pyrrolidin-1-yl)-propylamine]
IT (sec), immobility time [1]: 50.28 ± 21.30 s
Improvement (%) [1]: 49.31%
effect on immobility time in the tail suspension test (in words) ([1]; 20 mg/kg): significant reduction in the immobility time
effect in the forced swimming test (in words) [2]: significant reduction in the immobility time
IT (sec), immobility time [2]: 60.7 ± 26.7 s
inhibition at 10 µM [5]: 91.2%
inhibition at 10 µM [6]: 75.6%
inhibition at 10 µM [7]: 95.3%
